Patent US6967196B1, “Sulfonamide compounds and uses thereof” (Bristol-Myers Squibb Company, priority 1999, dated 2005)
Where two headings read alike, the source gives them in different places.

Tested on: amyloid β production in transfected H4 (human neuroglioma) cells stably expressing APP constructs
Test: In vitro cell-based assay of inhibitors of amyloid β production (ELISA)
Conditions: transfected H4 cells stably expressing APP, amyloid β in medium by ELISA, read-out: ACTIVITY (IC50, inhibition of amyloid β production)
Outline: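 Aβ secreted into the medium was determined by a two-antibody ELISA specific for the Aβ C-terminus, calibrated with known Aβ amounts. Before that, compounds (10-100 μM initially) were left on the cells for roughly 16 hours.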

[1] = approximately 16 hours incubation

| Substance | IC50 (approx. 16 h incubation) [nM] | IC50 [1] [nM] |
| --- | --- | --- |
| N-{3-[2-(1-{[(4-chlorophenyl)sulfonyl]-2,5-difluoroanilino}ethyl)phenoxy]propyl}-2,4-dimethoxy-N-methylbenzamide [Example 753] | 100 to 500 |  |
| N-{3-[2-(1-{[(4-chlorophenyl)sulfonyl]-2,5-difluoroanilino}ethyl)phenoxy]propyl}-2,5-bis(trifluoromethyl)benzamide [Example 736] | 100 to 500 |  |
| N-{3-[2-(1-{[(4-chlorophenyl)sulfonyl]-2,5-difluoroanilino}ethyl)phenoxy]propyl}-2,5-difluoro-N-methylbenzamide [Example 727] | 100 to 500 |  |
| N-{3-[2-(1-{[(4-chlorophenyl)sulfonyl]-2,5-difluoroanilino}ethyl)phenoxy]propyl}-2,6-difluoro-N-methylbenzamide [Example 755] | 100 to 500 |  |
| N-{3-[2-(1-{[(4-chlorophenyl)sulfonyl]-2,5-difluoroanilino}ethyl)phenoxy]propyl}-2-naphthamide [Example 808] |  | 100 to 500 |
| N-{3-[2-(1-{[(4-chlorophenyl)sulfonyl]-2,5-difluoroanilino}ethyl)phenoxy]propyl}-2-phenylcyclopropanecarboxamide [Example 789] | 100 to 500 |  |
| N-{3-[2-(1-{[(4-chlorophenyl)sulfonyl]-2,5-difluoroanilino}ethyl)phenoxy]propyl}-3,4,5-trimethoxybenzamide [Example 651] | 100 to 500 |  |
| N-{3-[2-(1-{[(4-chlorophenyl)sulfonyl]-2,5-difluoroanilino}ethyl)phenoxy]propyl}-3,4-dimethoxy-N-methylbenzamide [Example 643] | 100 to 500 |  |
| N-{3-[2-(1-{[(4-chlorophenyl)sulfonyl]-2,5-difluoroanilino}ethyl)phenoxy]propyl}-3,5-difluorobenzamide [Example 815] |  | 100 to 500 |
| N-{3-[2-(1-{[(4-chlorophenyl)sulfonyl]-2,5-difluoroanilino}ethyl)phenoxy]propyl}-3,5-dimethoxy-N-methylbenzamide [Example 802] | 100 to 500 |  |
| N-{3-[2-(1-{[(4-chlorophenyl)sulfonyl]-2,5-difluoroanilino}ethyl)phenoxy]propyl}-3-fluoro-N-methylbenzamide [Example 699] | 100 to 500 |  |
| N-{3-[2-(1-{[(4-chlorophenyl)sulfonyl]-2,5-difluoroanilino}ethyl)phenoxy]propyl}-3-methoxy-N-methylbenzamide [Example 786] | 100 to 500 |  |
| N-{3-[2-(1-{[(4-chlorophenyl)sulfonyl]-2,5-difluoroanilino}ethyl)phenoxy]propyl}-3-methoxybenzamide [Example 690] | 100 to 500 |  |
| N-{3-[2-(1-{[(4-chlorophenyl)sulfonyl]-2,5-difluoroanilino}ethyl)phenoxy]propyl}-3-nitrobenzamide [Example 723] | 100 to 500 |  |
| N-{3-[2-(1-{[(4-chlorophenyl)sulfonyl]-2,5-difluoroanilino}ethyl)phenoxy]propyl}-4-(trifluoromethoxy)benzamide [Example 920] |  | > 500 |
| N-{3-[2-(1-{[(4-chlorophenyl)sulfonyl]-2,5-difluoroanilino}ethyl)phenoxy]propyl}-4-fluoro-N-methylbenzamide [Example 654] | 100 to 500 |  |
| N-{3-[2-(1-{[(4-chlorophenyl)sulfonyl]-2,5-difluoroanilino}ethyl)phenoxy]propyl}-4-fluorobenzamide [Example 679] | 100 to 500 |  |
| N-{3-[2-(1-{[(4-chlorophenyl)sulfonyl]-2,5-difluoroanilino}ethyl)phenoxy]propyl}-4-iodo-N-methylbenzamide [Example 719] | 100 to 500 |  |
| N-{3-[2-(1-{[(4-chlorophenyl)sulfonyl]-2,5-difluoroanilino}ethyl)phenoxy]propyl}-4-iodobenzamide [Example 824] |  | 100 to 500 |
| N-{3-[2-(1-{[(4-chlorophenyl)sulfonyl]-2,5-difluoroanilino}ethyl)phenoxy]propyl}-4-methoxy-N-methylbenzamide [Example 652] | 100 to 500 |  |
| N-{3-[2-(1-{[(4-chlorophenyl)sulfonyl]-2,5-difluoroanilino}ethyl)phenoxy]propyl}-4-methoxybenzamide [Example 819] |  | 100 to 500 |
| N-{3-[2-(1-{[(4-chlorophenyl)sulfonyl]-2,5-difluoroanilino}ethyl)phenoxy]propyl}-4-methylbenzamide [Example 707] | 100 to 500 |  |
| N-{3-[2-(1-{[(4-chlorophenyl)sulfonyl]-2,5-difluoroanilino}ethyl)phenoxy]propyl}-4-nitrobenzamide [Example 805] | 100 to 500 |  |
| N-{3-[2-(1-{[(4-chlorophenyl)sulfonyl]-2,5-difluoroanilino}ethyl)phenoxy]propyl}-N,2-dimethylbenzamide [Example 693] | 100 to 500 |  |

| Substance | IC50 (approx. 16 h incubation) [nM] | IC50 [1] [nM] |
| --- | --- | --- |
| N-{3-[2-(1-{[(4-chlorophenyl)sulfonyl]-2,5-difluoroanilino}ethyl)phenoxy]propyl}-N,4-dimethylbenzamide [Example 741] | 100 to 500 |  |
| N-{3-[2-(1-{[(4-chlorophenyl)sulfonyl]-2,5-difluoroanilino}ethyl)phenoxy]propyl}-N-methyl-1-naphthalenesulfonamide [Example 776] | 100 to 500 |  |
| N-{3-[2-(1-{[(4-chlorophenyl)sulfonyl]-2,5-difluoroanilino}ethyl)phenoxy]propyl}-N-methyl-1-naphthamide [Example 966] |  | > 500 |
| N-{3-[2-(1-{[(4-chlorophenyl)sulfonyl]-2,5-difluoroanilino}ethyl)phenoxy]propyl}-N-methyl-2,5-bis(trifluoromethyl)benzamide [Example 892] |  | > 500 |
| N-{3-[2-(1-{[(4-chlorophenyl)sulfonyl]-2,5-difluoroanilino}ethyl)phenoxy]propyl}-N-methyl-2-naphthalenesulfonamide [Example 671] | 100 to 500 |  |
| N-{3-[2-(1-{[(4-chlorophenyl)sulfonyl]-2,5-difluoroanilino}ethyl)phenoxy]propyl}-N-methyl-2-naphthamide [Example 858] |  | 100 to 500 |
| N-{3-[2-(1-{[(4-chlorophenyl)sulfonyl]-2,5-difluoroanilino}ethyl)phenoxy]propyl}-N-methyl-3,5-bis(trifluoromethyl)benzamide [Example 934] |  | > 500 |
| N-{3-[2-(1-{[(4-chlorophenyl)sulfonyl]-2,5-difluoroanilino}ethyl)phenoxy]propyl}-N-methyl-3-(trifluoromethyl)benzamide [Example 657] | 100 to 500 |  |
| N-{3-[2-(1-{[(4-chlorophenyl)sulfonyl]-2,5-difluoroanilino}ethyl)phenoxy]propyl}-N-methyl-3-nitrobenzamide [Example 737] | 100 to 500 |  |
| N-{3-[2-(1-{[(4-chlorophenyl)sulfonyl]-2,5-difluoroanilino}ethyl)phenoxy]propyl}-N-methyl-4-(trifluoromethoxy)benzamide [Example 770] | 100 to 500 |  |
| N-{3-[2-(1-{[(4-chlorophenyl)sulfonyl]-2,5-difluoroanilino}ethyl)phenoxy]propyl}-N-methyl-4-(trifluoromethyl)benzamide [Example 703] | 100 to 500 |  |
| N-{3-[2-(1-{[(4-chlorophenyl)sulfonyl]-2,5-difluoroanilino}ethyl)phenoxy]propyl}-N-methyl-4-propylbenzamide [Example 656] | 100 to 500 |  |
| N-{3-[2-(1-{[(4-chlorophenyl)sulfonyl]-2,5-difluoroanilino}methyl)phenoxy]propyl}-2-fluoro-N-methylbenzamide [Example 733] | 100 to 500 |  |
| N-{3-[2-(1-{[(4-chlorophenyl)sulfonyl]-2,5-difluoroanilino}methyl)phenoxy]propyl}-N-methyl-2-phenylcyclopropanecarboxamide [Example 759] | 100 to 500 |  |
| N-{3-[2-({[(4-chlorophenyl)sulfonyl]-2,5-difluoroanilino}ethyl)phenoxy]propyl}-3,4,5-trimethoxy-N-methylbenzamide [Example 913] |  | > 500 |
| N-{3-[2-({[(4-chlorophenyl)sulfonyl]-2,5-difluoroanilino}methyl)phenoxy]propyl}-2,3,4-trifluoro-N-methylbenzamide [Example 864] |  | 100 to 500 |
| N-{3-[2-({[(4-chlorophenyl)sulfonyl]-2,5-difluoroanilino}methyl)phenoxy]propyl}-2,3-difluoro-N-methylbenzamide [Example 665] | 100 to 500 |  |
| N-{3-[2-({[(4-chlorophenyl)sulfonyl]-2,5-difluoroanilino}methyl)phenoxy]propyl}-2,4,5-trifluoro-N-methylbenzamide [Example 813] |  | 100 to 500 |
| N-{3-[2-({[(4-chlorophenyl)sulfonyl]-2,5-difluoroanilino}methyl)phenoxy]propyl}-2,4-dimethoxy-N-methylbenzamide [Example 834] |  | 100 to 500 |
| N-{3-[2-({[(4-chlorophenyl)sulfonyl]-2,5-difluoroanilino}methyl)phenoxy]propyl}-2-iodo-N-methylbenzamide [Example 716] | 100 to 500 |  |
| N-{3-[2-({[(4-chlorophenyl)sulfonyl]-2,5-difluoroanilino}methyl)phenoxy]propyl}-2-methoxy-N-methylbenzamide [Example 775] | 100 to 500 |  |
| N-{3-[2-({[(4-chlorophenyl)sulfonyl]-2,5-difluoroanilino}methyl)phenoxy]propyl}-3,4,5-trimethoxy-N-methylbenzamide [Example 989] |  | > 500 |
| N-{3-[2-({[(4-chlorophenyl)sulfonyl]-2,5-difluoroanilino}methyl)phenoxy]propyl}-3,4-dimethoxy-N-methylbenzamide [Example 960] |  | > 500 |
